Measurements reported in ChEMBL document CHEMBL1201862, “PubChem BioAssay data set” (2004).
The source made the active and inactive calls.

Assays:
[1] = THP-1 cell cytotoxicity, dose response, cytotoxicity control for non-replicating M. tuberculosis project (AID 489025); assay type: functional
[2] = biological target: T1, Calpain-2 catalytic subunit (Sus scrofa, UniProt P43367); experiment: m-calpain protease blockers, concentration series – biochemical, fluorogenic peptide substrate, dose response (AID 1420); assay type: functional
T1 sequence (P43367 whole entry): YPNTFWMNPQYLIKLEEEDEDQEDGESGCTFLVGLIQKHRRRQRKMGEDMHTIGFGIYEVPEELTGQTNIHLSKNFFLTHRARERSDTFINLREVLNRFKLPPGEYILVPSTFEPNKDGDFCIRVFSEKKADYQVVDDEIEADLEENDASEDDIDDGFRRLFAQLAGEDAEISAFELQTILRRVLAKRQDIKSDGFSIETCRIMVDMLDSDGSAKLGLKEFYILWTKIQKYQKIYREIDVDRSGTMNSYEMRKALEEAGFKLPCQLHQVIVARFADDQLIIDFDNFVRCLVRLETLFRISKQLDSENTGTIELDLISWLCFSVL

BJ [3] = experiment: BJ-TERT fibroblast viability loss – cell-based, RAS-independent, luminescence, dose response (AID 1933); assay type: functional; conditions: Homo sapiens
BJ [4] = experiment: cells; assay type: functional, cell-based; conditions: Homo sapiens
BJ [5] = experiment: BJ-TERT-LT-ST fibroblast viability loss – cell-based, RAS-independent, luminescence, dose response (AID 1935); assay type: functional; conditions: Homo sapiens;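 note: BJ fibroblasts immortalized with TERT plus LT and ST oncogenes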
[6] = DRD fibroblast viability loss – cell-based, non-viral oncogenic, luminescence, dose response (AID 1934); assay type: functional; conditions: Homo sapiens
Fatty acid synthase = Fatty acid synthase (Homo sapiens, UniProt P49327); experiment: inhibition of human FAS-TE enzyme activity – biochemical, kinetic fluorescence intensity, dose response (AID 624326); assay type: functional;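 note: rate of fluorescence rise from hydrolysis of a fluorogenic O-methyl fluorescein ester substrate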
Sequence of Fatty acid synthase (P49327 whole entry): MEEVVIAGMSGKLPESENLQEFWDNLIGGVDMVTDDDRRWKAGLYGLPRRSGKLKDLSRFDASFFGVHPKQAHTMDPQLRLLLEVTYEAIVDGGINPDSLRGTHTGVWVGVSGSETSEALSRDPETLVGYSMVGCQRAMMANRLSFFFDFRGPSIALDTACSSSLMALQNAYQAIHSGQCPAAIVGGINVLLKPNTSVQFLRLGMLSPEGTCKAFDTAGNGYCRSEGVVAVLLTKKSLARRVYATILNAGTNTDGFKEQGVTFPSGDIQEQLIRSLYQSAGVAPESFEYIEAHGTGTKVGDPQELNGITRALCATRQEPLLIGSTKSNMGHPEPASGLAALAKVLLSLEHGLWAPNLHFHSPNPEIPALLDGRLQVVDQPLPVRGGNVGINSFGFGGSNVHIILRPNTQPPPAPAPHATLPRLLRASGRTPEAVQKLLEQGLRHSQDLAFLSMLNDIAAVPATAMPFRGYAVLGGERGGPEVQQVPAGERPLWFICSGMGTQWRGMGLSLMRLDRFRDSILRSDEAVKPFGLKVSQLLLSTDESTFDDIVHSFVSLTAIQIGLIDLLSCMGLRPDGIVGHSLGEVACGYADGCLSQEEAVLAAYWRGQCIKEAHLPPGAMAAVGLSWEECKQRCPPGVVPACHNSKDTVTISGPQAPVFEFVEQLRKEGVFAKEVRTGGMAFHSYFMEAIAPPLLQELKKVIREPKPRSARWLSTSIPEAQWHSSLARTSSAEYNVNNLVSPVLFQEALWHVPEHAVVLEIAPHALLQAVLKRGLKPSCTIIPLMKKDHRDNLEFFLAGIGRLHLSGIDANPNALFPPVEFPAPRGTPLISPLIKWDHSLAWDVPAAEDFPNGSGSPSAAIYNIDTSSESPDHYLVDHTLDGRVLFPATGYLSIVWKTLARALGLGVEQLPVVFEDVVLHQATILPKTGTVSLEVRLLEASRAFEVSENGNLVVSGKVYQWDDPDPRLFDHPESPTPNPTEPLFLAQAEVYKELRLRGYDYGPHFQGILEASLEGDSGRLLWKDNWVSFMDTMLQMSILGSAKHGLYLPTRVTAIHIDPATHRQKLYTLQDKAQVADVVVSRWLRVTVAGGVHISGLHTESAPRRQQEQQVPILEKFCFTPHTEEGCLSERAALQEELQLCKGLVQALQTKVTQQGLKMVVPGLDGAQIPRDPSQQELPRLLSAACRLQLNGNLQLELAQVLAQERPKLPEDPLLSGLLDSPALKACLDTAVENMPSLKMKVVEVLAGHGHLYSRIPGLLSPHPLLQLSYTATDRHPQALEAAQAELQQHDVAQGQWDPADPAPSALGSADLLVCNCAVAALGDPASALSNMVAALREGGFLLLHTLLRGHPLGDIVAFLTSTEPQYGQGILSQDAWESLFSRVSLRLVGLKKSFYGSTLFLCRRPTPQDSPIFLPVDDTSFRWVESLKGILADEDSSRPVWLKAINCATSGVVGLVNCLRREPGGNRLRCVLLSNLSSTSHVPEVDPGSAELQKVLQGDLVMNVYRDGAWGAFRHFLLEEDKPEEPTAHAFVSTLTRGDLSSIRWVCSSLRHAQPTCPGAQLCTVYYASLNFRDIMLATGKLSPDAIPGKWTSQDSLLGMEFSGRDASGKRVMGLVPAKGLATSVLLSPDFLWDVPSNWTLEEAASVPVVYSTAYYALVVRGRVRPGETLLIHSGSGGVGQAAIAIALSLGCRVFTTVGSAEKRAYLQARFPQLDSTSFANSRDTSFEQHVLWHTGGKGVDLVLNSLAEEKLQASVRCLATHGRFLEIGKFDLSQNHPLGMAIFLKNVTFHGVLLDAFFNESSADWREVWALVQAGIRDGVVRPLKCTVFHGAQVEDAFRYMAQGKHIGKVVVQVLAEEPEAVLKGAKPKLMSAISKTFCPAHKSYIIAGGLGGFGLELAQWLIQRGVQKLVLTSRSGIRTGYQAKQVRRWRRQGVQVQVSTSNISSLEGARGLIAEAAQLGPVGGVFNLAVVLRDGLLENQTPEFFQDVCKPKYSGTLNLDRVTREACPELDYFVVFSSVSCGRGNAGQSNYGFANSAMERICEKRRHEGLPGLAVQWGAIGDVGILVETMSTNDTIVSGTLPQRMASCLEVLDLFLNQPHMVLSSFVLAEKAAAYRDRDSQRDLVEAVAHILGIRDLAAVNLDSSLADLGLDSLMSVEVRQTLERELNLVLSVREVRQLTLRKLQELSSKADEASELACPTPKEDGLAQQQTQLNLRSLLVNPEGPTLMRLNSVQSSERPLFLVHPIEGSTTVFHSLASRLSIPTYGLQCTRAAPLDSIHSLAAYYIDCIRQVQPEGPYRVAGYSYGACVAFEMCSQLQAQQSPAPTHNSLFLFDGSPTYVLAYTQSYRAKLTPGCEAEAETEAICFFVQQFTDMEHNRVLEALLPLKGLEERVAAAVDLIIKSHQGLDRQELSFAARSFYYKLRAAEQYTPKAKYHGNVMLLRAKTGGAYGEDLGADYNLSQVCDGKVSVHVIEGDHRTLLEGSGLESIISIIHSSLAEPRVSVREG

Leucine aminopeptidase = biological target: T2, Leucine aminopeptidase (Plasmodium falciparum 3D7, UniProt Q8IL11); experiment: P. falciparum M17LAP inhibitors, primary screen, biochemical, fluorogenic H-Leu-NHMec substrate, 1536-well (AID 1619); assay type: functional
T2 sequence (Q8IL11 whole entry): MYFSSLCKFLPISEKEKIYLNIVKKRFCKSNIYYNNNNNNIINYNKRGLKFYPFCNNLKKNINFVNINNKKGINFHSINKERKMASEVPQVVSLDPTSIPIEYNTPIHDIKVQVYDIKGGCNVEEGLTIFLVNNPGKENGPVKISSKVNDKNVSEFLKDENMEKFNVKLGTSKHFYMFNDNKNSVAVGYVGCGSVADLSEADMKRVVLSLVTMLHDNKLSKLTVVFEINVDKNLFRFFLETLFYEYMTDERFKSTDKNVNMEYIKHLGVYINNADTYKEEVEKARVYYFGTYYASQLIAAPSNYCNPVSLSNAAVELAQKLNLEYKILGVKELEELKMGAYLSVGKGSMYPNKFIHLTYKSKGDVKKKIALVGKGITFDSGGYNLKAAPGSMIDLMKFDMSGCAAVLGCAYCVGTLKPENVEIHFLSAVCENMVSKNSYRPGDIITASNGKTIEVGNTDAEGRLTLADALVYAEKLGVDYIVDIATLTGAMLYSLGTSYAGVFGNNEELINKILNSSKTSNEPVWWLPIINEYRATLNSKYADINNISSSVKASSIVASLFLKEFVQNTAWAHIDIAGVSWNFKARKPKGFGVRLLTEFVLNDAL

[7] = biological target: T3, Rac GTPase-activating protein 1 (Homo sapiens, UniProt Q9H0H5); experiment: blockers of MgcRacGAP-driven Rac1 GTP hydrolysis – biochemical, ADP Hunter fluorescence, primary and confirmatory, confirmation (AID 624330); assay type: functional
T3 sequence (Q9H0H5 whole entry): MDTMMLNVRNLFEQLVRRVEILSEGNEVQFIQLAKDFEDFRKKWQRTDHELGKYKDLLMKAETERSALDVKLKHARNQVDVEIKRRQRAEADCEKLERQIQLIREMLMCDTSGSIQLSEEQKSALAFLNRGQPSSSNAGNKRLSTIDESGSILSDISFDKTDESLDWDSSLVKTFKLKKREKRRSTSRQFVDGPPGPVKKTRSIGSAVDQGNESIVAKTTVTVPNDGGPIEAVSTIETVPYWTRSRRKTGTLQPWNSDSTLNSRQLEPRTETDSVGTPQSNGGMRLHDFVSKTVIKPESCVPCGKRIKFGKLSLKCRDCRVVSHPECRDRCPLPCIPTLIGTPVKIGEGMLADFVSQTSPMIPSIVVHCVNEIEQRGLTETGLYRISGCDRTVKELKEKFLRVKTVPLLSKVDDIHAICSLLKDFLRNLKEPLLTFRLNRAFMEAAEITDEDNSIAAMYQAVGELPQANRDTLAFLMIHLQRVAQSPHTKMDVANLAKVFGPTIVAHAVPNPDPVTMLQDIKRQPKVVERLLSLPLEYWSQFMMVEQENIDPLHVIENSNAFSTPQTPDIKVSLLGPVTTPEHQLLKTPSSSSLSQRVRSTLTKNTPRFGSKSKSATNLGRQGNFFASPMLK

cells [8] = assay type: functional, cell-based
cells [9] = assay type: functional, cell-based; remark: listed apart in the source
[10] = HIV-1 AD8 envelope cell-cell fusion blockers – cherry-pick, dose response (AID 652062); assay type: functional, cell-based;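 note: luciferase signal from cell-cell fusion driven by HIV-1 clade B AD8 Env; potency is for inhibitors of fusion seen as a drop in luminescence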
[11] = blockers of HIV-1 envelope-mediated cell-cell fusion – cherry-pick, dose response (AID 652057); assay type: functional, cell-based
[12] = blockers of HIV-1 ZM109 envelope-driven cell-cell fusion – HeLa effector, CEM target cells, luciferase, cherry-pick, dose response (AID 652058); assay type: functional, cell-based;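 note: luciferase signal from HIV-1 Env mediated cell-cell fusion of effector and target cells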
[13] = Luminescence Cell-Based Dose Retest to Confirm Inhibitors of Cancer Stem Cells. [Related pubchem assays (depositor defined):AID2717, AID2721]; assay type: functional; conditions: Homo sapiens
[14] = biological target: T4, Heat shock factor protein 1 (Mus musculus, UniProt P38532); experiment: enhancement of HSF1-driven luciferase signal – cell-based, NIH3T3, luminescence, dose retest, confirmation (AID 435004); assay type: functional;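 note: stress induced by proteasome inhibitor MG132 added 30 min after compound; luciferase reporter driven by HSF1 response element in NIH3T3 cells; actives raise luminescence as potentiators of the MG132 stress response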
T4 sequence (P38532 whole entry): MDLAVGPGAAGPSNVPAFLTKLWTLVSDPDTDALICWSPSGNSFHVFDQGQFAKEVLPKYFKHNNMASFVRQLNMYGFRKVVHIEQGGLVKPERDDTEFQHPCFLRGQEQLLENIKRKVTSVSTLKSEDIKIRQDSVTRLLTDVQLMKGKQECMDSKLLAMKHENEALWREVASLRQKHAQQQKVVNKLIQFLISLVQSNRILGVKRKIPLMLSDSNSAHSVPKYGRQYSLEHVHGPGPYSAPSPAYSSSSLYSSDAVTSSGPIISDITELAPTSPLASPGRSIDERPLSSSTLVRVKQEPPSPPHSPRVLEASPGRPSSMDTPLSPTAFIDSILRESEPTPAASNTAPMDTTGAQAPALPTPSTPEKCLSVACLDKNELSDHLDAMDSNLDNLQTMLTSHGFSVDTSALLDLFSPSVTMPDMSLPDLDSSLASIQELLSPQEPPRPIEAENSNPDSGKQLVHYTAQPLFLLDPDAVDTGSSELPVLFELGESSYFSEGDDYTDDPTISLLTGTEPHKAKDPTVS

[15] = NIH-3T3 fibroblast cytotoxicity, dose response, cytotoxicity control, cell-based, fluorescence, Alamar Blue, secondary assay (AID 2327); assay type: functional;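 note: NIH-3T3 mouse fibroblasts cultured with fluconazole at 8 µg/mL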
[16] = fluconazole-exposed Candida albicans growth modulators – fluorescence, retest, confirmation (AID 2467); assay type: functional, cell-based

## CC(C)=CC1C(C(=O)Nc2ccc(Br)cn2)C1(C)C (stereo not drawn)
[1]
  CC50: > 40 µM (active)
[2]
  IC50: 6.34 µM (not active)

## O=C(Nc1cccc2ccccc12)/C(Cl)=C/c1ccccc1
[2]
  IC50: 8.93 µM (not active)

## COc1ccc(-c2cc(C(=O)N3CCCc4ccccc43)no2)cc1
[2]
  IC50: 13.4 µM (not active)

## CCC(C)C(NC(=O)c1ccc(Cl)cc1)C(=O)Nc1cccnc1 (stereo not drawn)
[2]
  IC50: 7.69 µM (not active)

## O=C1OC(c2cccc([N+](=O)[O-])c2)C2(CCCC2)C(=O)C12CCCCC2 (stereo not drawn)
[2]
  IC50: > 50 µM (not active)

## O=C(Cc1ccc(N2CCNC2=O)cc1)N1CCCC(Nc2ccc(F)c(F)c2)C1 (stereo not drawn)
BJ [3]
  EC50: 9.17 µM (inconclusive)
BJ [4]
  EC50: 3.98 µM (active)
BJ [5]
  EC50: 4.14 µM (active)
[6]
  EC50: 14.9 µM (inconclusive)

## CNS(=O)(=O)c1ccc2c(c1)C(=O)c1cc(S(=O)(=O)NC)ccc1CC2
Fatty acid synthase
  IC50: 0.865 µM (active)

## CN1C2CCC1/C(=C/c1cccn1C)C(=O)/C2=C\c1cccn1C
Leucine aminopeptidase
  IC50: 51.9 µM (active)

## CCCOc1ccc(N2C(=O)CC(SCCN)C2=O)cc1 (stereo not drawn)
Leucine aminopeptidase
  IC50: 12 µM (active)

## Cc1noc(NS(=O)(=O)c2ccc(NC(=O)Nc3ccc(Cl)c(Cl)c3)cc2)c1C
Leucine aminopeptidase
  IC50: 9.03 µM (active)

## CCOc1ccc(Nc2nnc(S)s2)cc1
[7]
  IC50: 54.8 µM (active)
Leucine aminopeptidase
  IC50: < 1 µM (active)

## CC(C)Cn1c(S)nnc1-c1csc(C(C)C)c1
[2]
  IC50: 10.8 µM (active)

## CCN1/C(=C\C=C2\C(=O)N(c3ccccc3)C(=S)N2C)Sc2ccccc21
[2]
  IC50: > 50 µM (not active)

## CC1=NNC(=O)C1CCC(=O)N/N=C\c1cccc(Cl)c1 (stereo not drawn)
Leucine aminopeptidase
  IC50: 20.9 µM (active)

## COc1ccc(C/C(C)=N/NS(=O)(=O)c2ccc(Br)cc2)cc1
Cells [8]
  EC50: > 350 µM (not active)
Cells [9]
  EC50: > 350 µM (not active)

## Cc1cccc(N=C(S)N2CCC(N(C)CC3CCCO3)CC2)c1 (stereo not drawn)
Cells [8]
  EC50: > 350 µM (not active)
Cells [9]
  EC50: > 350 µM (not active)

## O=C(O)c1cnn2cc(-c3n[nH]cc3[N+](=O)[O-])cnc12
Leucine aminopeptidase
  IC50: 13.3 µM (active)

## Cc1onc(-c2c(Cl)cccc2Cl)c1C(=O)N=C(N)N1CCCC1
Cells [8]
  EC50: > 350 µM (not active)
Cells [9]
  EC50: > 350 µM (not active)

## Nn1c(Cc2cccc3ccccc23)nnc1SCc1ccc(Cl)c(Cl)c1
[2]
  IC50: < 0.4 µM (not active)

## C=CCNC(=O)/C(=C/c1cn(-c2ccccc2)nc1-c1cccc([N+](=O)[O-])c1)NC(=O)c1ccccc1
Cells [8]
  EC50: > 350 µM (not active)
Cells [9]
  EC50: > 350 µM (not active)

## C[C@@H]1CN([C@H](C)CO)S(=O)(=O)c2ccc(-c3cccc(F)c3)cc2O[C@@H]1CN(C)S(=O)(=O)c1ccccc1
[10]
  AC50: 31.6 µM (active)
[11]
  AC50: 3.28 µM (active)
[12]
  AC50: 2.78 µM (active)

## CCCc1nc2ccccc2c(=O)n1/N=C/c1ccccc1O
Cells [8]
  EC50: > 350 µM (not active)
Cells [9]
  EC50: > 350 µM (not active)

## CO[C@H]1CN(C)C(=O)c2ccc(NC(=O)C3CCC3)cc2OC[C@@H](C)N(CC2CCCCC2)C[C@@H]1C
[10]
  AC50: 19.9 µM (active)
[11]
  AC50: 10.1 µM (active)
[12]
  AC50: 3.18 µM (active)

## CSc1nc(Oc2ccccc2)c2sccc2n1
[2]
  IC50: < 0.4 µM (not active)

## COc1ccc(-n2c(SCC(=O)Nc3ncc(Cl)cc3Cl)nc3ccccc32)cc1
BJ [3]
  EC50: 27.8 µM (active)
BJ [4]
  EC50: 139 µM (active)
BJ [5]
  EC50: > 150 µM (inconclusive)
[6]
  EC50: 137 µM (active)

## C[C@H]1CN([C@@H](C)CO)S(=O)(=O)c2ccc(Br)cc2O[C@H]1CN(C)S(=O)(=O)c1ccc(F)cc1
[10]
  AC50: 29.7 µM (active)
[11]
  AC50: 2.84 µM (active)
[12]
  AC50: 3.04 µM (active)

## Cc1ccc2cc(CCNC(=O)c3cc4ccccc4o3)c(O)nc2c1C
[2]
  IC50: > 50 µM (not active)

## COc1ccc(/C=C(\C#N)c2c[nH]c3ccccc23)cc1
BJ [3]
  EC50: 0.706 µM (inconclusive)
BJ [4]
  EC50: 20 µM (inconclusive)
[13]
  AC50: 0.203 µM (active)
BJ [5]
  EC50: 1.76 µM (inconclusive)
[14]
  EC50: 39.2 µM (active)
[6]
  EC50: 0.441 µM (active)

## CCc1ccc(NC(=O)c2noc(C(C)C)c2[N+](=O)[O-])cc1
[2]
  IC50: 6.83 µM (not active)

## Nc1[nH]nc2nc(N3CCCC3)nc(-c3ccccc3)c12
Leucine aminopeptidase
  IC50: 33.7 µM (active)

## O=C(CN1C(=O)C2C3C=CC(C3)C2C1=O)NCC1COc2ccccc2O1 (stereo not drawn)
Leucine aminopeptidase
  IC50: 2.19 µM (active)

## O=C(c1cc2ccccc2o1)N1CCN(Cc2ccc3c(c2)OCO3)CC1
Cells [8]
  EC50: > 350 µM (not active)
Cells [9]
  EC50: > 350 µM (not active)

## Cc1cc2cc(CN=C(S)NC3CCCCC3)ccc2[nH]1
[2]
  IC50: 34.6 µM (not active)

## CCC1(C)Cc2sc3c(=O)[nH]c(=S)[nH]c3c2CO1 (stereo not drawn)
Leucine aminopeptidase
  IC50: 29.3 µM (active)

## COc1cccc(N/N=C(\C#N)S(=O)(=O)C(C)(C)C)c1
Leucine aminopeptidase
  IC50: 26.7 µM (active)

## CCOc1ccc(CC(=O)OCn2nnc3ccccc3c2=O)cc1
[2]
  IC50: 24.4 µM (not active)

## Brc1ccc(-c2nnc3sc(CN4CCN(c5ccccc5)CC4)cn23)cc1
BJ [3]
  EC50: > 150 µM (not active)
[15]
  EC50: > 150 µM (inactive)
BJ [4]
  EC50: > 150 µM (not active)
BJ [5]
  EC50: > 150 µM (not active)
[16]
  EC50: 2.14 µM (active)
[6]
  EC50: > 150 µM (not active)

## O=C(CCCCCN1C(=O)c2ccccc2C1=O)Nc1ccc(F)cc1
[2]
  IC50: 11.1 µM (not active)

## CN1CCN(Cc2nc3ccccc3c(=O)n2Cc2nc(-c3ccccc3F)cs2)CC1
Cells [8]
  EC50: > 350 µM (not active)
Cells [9]
  EC50: 45.4 µM (active)

## CCN(CC)c1ccc(NC(=O)Cn2nnc(-c3cccc(OC)c3OC)n2)c(C)c1
Cells [8]
  EC50: > 350 µM (not active)
Leucine aminopeptidase
  IC50: < 1 µM (active)
Cells [9]
  EC50: > 350 µM (not active)
